From patent US20250049800A1, “VCP/p97 INHIBITOR FOR THE TREATMENT OF CANCER” (CASI Pharmaceuticals, Inc., priority 2021, published 2025) come the findings set out here.

The test system of data set [1] is K48-Ub (ubiquitin). As to the kind of experiment: K48-Ub (ubiquitin) biomarker in patient blood samples. To be noted: cohorts 4 and 5; two of 5 patients showed changes. The format is in vivo, human. Here is the method:
Two biomarkers were assessed in patients from cohorts 4 and 5. K48-Ub (ubiquitin) and Activated Caspase 3 biomarkers were analyzed from 5 patient blood samples.

Data set [2] can be described thus: Phase I study: safety, adverse events and visual symptoms. The data set is classed as in vivo, human. Here is the method: Similar dosing may be used in the dose expansion part of the study. BID dosing may be also tested depending on initial PK assessments. Participants were evaluated regularly for safety assessments including physical examinations and laboratory testing. Bone marrow aspirates and/or biopsies are performed at regular intervals, including for assessment of tumor response as per 2017 European LeukemiaNet (ELN) response criteria for AML or 2006 revised International Working Group (IWG) response criteria for MDS. Peripheral blood samples are collected in Cycle 1 for intensive PK testing and PD biomarker assessments. Additional intensive PK testing is collected for any participants undergoing intra-patient dose escalation.

Data set [3] has as its system OVCAR-8 (Ovary). As to the kind of experiment: Cell Titer-Glo viability: single agent IC50 and Compound 1 + PARP inhibitor matrix (Bliss). The format is cell-based. Particulars: Homo sapiens, 72 h, single agent, read-out: Absolute IC50. Here is the method: (§1) The PARP inhibitors used for the study were talazoparib, olaparib and niraparib. […] was used as a reference control. […] For each drug agent on its own, IC50 values in each cell line were determined. Interactions of the combinations of Compound 1 and each PARP inhibitor was assessed as follows: […] Cisplatin and culture media were used as positive and negative control, respectively. The combination activities were assessed using CrownSyn software to determine synergy scores by Bliss Independence and Loewe additivity methods. […] Synergy scores calculated by both Bliss independence model and Loewe additivity model (see Greco, […]., Poch, G., Suhnel, J., Kundi, M., & Bodeker, W. (1992). Consensus on concepts and terminology for combined-action assessment: the […] agreement. […] Without being bound by theory, the Bliss independence model is often applied to asses synergy for non-interacting drugs that elicit their responses independently, e.g., by targeting separate pathways, whereas the Loewe additivity model may be more compatible where both drugs have similar modes of action on the same targets or pathways.
Background: In ATP-based viability assays light output follows the ATP content of the culture.

Data set [4] concerns DoTc2 4510 (Uterus/Cervix). The description is as above. Particulars: Homo sapiens, single agent, read-out: Absolute IC50. The data set is classed as cell-based. Here is the method: as §1
In data set [5] the test system is HCC1806 (Breast). Described as above. The data set is classed as cell-based. To be noted: Homo sapiens, 72 h, single agent, read-out: Absolute IC50. Here is the method: as §1
For data set [6], the system named is SK-OV-3 (Ovary). The description is as above. The data set is classed as cell-based. To be noted: Homo sapiens, single agent, read-out: Absolute IC50. Here is the method: as §1
In data set [7] the test system is MX-1 (Breast). The description is as above. The format is cell-based. To be noted: single agent, read-out: Absolute IC50. Here is the method:
as §1

The test system of data set [8] is DU4475 (Breast). The data set is described as above. The format is cell-based. To be noted: Homo sapiens, DU-4475, 72 h, single agent, read-out: Absolute IC50. Here is the method:
as §1

Data set [9] concerns HCC1937 (Breast). The description is as above. The format is cell-based. Particulars: Homo sapiens, single agent, read-out: Absolute IC50. Here is the method:
as §1

In data set [10] the test system is Capan-1 (Pancreas). The description is as above. The format is cell-based. Particulars: Homo sapiens, 72 h, single agent, read-out: Absolute IC50. Here is the method: as §1
Data set [11] has as its system HCC1395 (Breast). The description is as above. The format is cell-based. To be noted: Homo sapiens, 72 h, single agent, read-out: Absolute IC50. Here is the method: as §1
Data set [12] concerns IGR-OV1 (Ovary). The data set is described as above. The format is cell-based. Particulars: Homo sapiens, IGROV-1, 72 h, single agent, read-out: Absolute IC50. Here is the method:
as §1

What is called IC50 is the concentration that gives 50% inhibition. For the compound `Cc1cc2c(C(N)=O)cccc2n1-c1nc2c(c(NCc3ccccc3)n1)CCCN2` [Compound 1, 1-(4-(benzylamino)-5,6,7,8-tetrahydropyrido[2,3-d]pyrimidin-2-yl)-2-methyl-1H-indole-4-carboxamide], the “K48-Ub (ubiquitin) biomarker, best fold change after treatment” value in [1] is recorded as “approximately 3.5 fold”. Also, in [2] (cohorts dosed 25 mg to 450 mg QD), the adverse events result is given as “No adverse events were observed”. For the same compound, the “visual adverse events at plasma exposure equivalent to CB-5083” value is given as “no lasting symptoms” in data set [2] (highest doses) and “no symptoms of visual impairment or other visual adverse events” in [2] (lower doses). Also, the “symptoms of visual impairment” value in [2] (lower dose cohorts) is on record as “No symptoms of visual impairment”. Also, the visual symptoms result in [2] (two patients in cohort X) is “low-grade visual symptoms on the day of dosing that did not persist”. Moreover, the IC50 in data set [3] was 200 nM; in data set [4] it was 513 nM; in data set [5], 437 nM; in data set [6], 1790 nM; in [7], 409 nM; in data set [8], 343 nM. Besides, the IC50 is 559 nM in [9], 405 nM in data set [10], 201 nM in data set [11] and 279 nM in data set [12].
